Here are results for 30 molecules from patent US9296723B2, “NAMPT inhibitors” (AbbVie Inc., priority 2012, dated 2016).

Sequence of NAMPT (P43490 whole entry): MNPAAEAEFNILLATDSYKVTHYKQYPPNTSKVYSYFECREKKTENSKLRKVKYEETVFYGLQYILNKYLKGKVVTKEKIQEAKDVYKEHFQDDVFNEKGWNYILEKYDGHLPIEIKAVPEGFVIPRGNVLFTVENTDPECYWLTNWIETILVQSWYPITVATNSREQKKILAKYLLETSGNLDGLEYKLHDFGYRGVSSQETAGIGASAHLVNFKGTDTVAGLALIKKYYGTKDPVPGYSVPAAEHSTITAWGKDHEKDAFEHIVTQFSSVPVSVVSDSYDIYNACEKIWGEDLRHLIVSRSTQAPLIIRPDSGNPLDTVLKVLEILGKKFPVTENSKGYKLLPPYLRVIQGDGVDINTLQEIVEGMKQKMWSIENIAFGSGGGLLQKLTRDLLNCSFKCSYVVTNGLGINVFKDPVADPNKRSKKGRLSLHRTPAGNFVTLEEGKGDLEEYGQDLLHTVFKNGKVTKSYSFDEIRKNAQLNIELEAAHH

One test concerns PC3 cells. Description: NAMPT Cell Proliferation Assay (Cell Titer Glo). It counts as cell-based. The note with it: Homo sapiens, PC-3, 120 h, incubated 5 days, cell viability. As to the method: NAMPT Cell Proliferation Assay
PC3 cells were seeded in 96-well black plates (Corning #3904) at 500 cells/well in 90 µl of RPMI media containing 10% heat-inactivated FBS and incubated overnight at 37° C. and 5% CO2 to allow cells to attach to wells. The following day, test compounds were serially diluted in neat DMSO to 1000× final concentrations prior to dilution with RPMI media to 10× and 1% DMSO. Ten L of the 10× compounds were then transferred to wells containing cells to produce a dose response of 10-fold dilutions from […]. Cells were incubated for 5 days at 37° C. and 5% CO2, then cell viability was measured using Cell Titer Glo reagent (Promega #G7571). Percent inhibition values were calculated and fitted to a sigmoidal dose response curves using Assay Explorer software to determine IC50s.
For orientation: IC50 means the point on the concentration scale where inhibition reaches its midpoint. Low values mean higher potency, high ones lower potency. Molecule `O=C(Nc1ccc(OC2CCN(C(=O)[C@H]3CCCO3)CC2)cc1)N1CC(c2cccnc2)C1` [Example 5, 3-(pyridin-3-yl)-N-[4-({1-[(2R)-tetrahydrofuran-2-ylcarbonyl]piperidin-4-yl}oxy)phenyl]azetidine-1-carboxamide] had an IC50 of 0.0283 µM.

The molecule `CC[C@H](C)C(=O)N1CCC(Cc2ccc(NC(=O)N3CC(c4cccnn4)C3)cc2)CC1` [Example 356, N-[4-({1-[(2S)-2-methylbutanoyl]piperidin-4-yl}methyl)phenyl]-3-(pyridazin-3-yl)azetidine-1-carboxamide] registered an IC50 of 0.791 µM.

For the molecule `CCC(CC)C(=O)N1CCC(Cc2ccc(NC(=O)N3CC(c4cccnn4)C3)cc2)CC1` [Example 352, N-(4-{[1-(2-ethylbutanoyl)piperidin-4-yl]methyl}phenyl)-3-(pyridazin-3-yl)azetidine-1-carboxamide], half-maximal inhibition (IC50) was put at 0.607 µM. This IC50 and that of the molecule before are within 1.5-fold of each other.

Molecule `O=C(CC1CCOCC1)N1CCC(c2ccc(NC(=O)N3CC(c4cccnc4)C3)cc2)CC1` [Example 50, 3-(pyridin-3-yl)-N-{4-[1-(tetrahydro-2H-pyran-4-ylacetyl)piperidin-4-yl]phenyl}azetidine-1-carboxamide] showed an IC50 of 0.00857 µM.

As to `O=C(Nc1ccc(C2CCN(C(=O)c3ccccc3F)CC2)cc1)N1CC(c2cccnn2)C1` [Example 337, N-{4-[1-(2-fluorobenzoyl)piperidin-4-yl]phenyl}-3-(pyridazin-3-yl)azetidine-1-carboxamide], the IC50 turned out to be 0.0555 µM.

As to `O=C(Nc1ccc(CC2CCN(C(=O)c3ccccc3)CC2)cc1)N1CC(c2cccnn2)C1` [Example 348, N-{4-[(1-benzoylpiperidin-4-yl)methyl]phenyl}-3-(pyridazin-3-yl)azetidine-1-carboxamide], it took 0.803 µM to reach half-maximal inhibition (IC50).

In turn, `Cc1ccccc1C(=O)N1CCC(c2ccc(NC(=O)N3CC(c4cccnn4)C3)cc2)CC1` [Example 338, N-{4-[1-(2-methylbenzoyl)piperidin-4-yl]phenyl}-3-(pyridazin-3-yl)azetidine-1-carboxamide] displayed an IC50 of 0.587 µM.

Take `Cn1cccc1C(=O)N1CCC(c2ccc(NC(=O)N3CC(c4cccnc4)C3)cc2)C1` (centres unmarked) [Example 285, N-(4-{1-[(1-methyl-1H-pyrrol-2-yl)carbonyl]pyrrolidin-3-yl}phenyl)-3-(pyridin-3-yl)azetidine-1-carboxamide]: half-maximal inhibition (IC50) was put at 0.0265 µM.

`O=C(Nc1ccc(OC2CN(C(=O)c3ccco3)C2)cc1)N1CC(c2cccnc2)C1` [Example 115, N-(4-{[1-(furan-2-ylcarbonyl)azetidin-3-yl]oxy}phenyl)-3-(pyridin-3-yl)azetidine-1-carboxamide] registered an IC50 of 0.00611 µM. Compared with the last molecule, the IC50 is about 4.3-fold lower.

Molecule `CC(C)(C)CC(=O)N1CCC(c2ccc(NC(=O)N3CC(c4cccnn4)C3)cc2)CC1` [Example 342, N-{4-[1-(3,3-dimethylbutanoyl)piperidin-4-yl]phenyl}-3-(pyridazin-3-yl)azetidine-1-carboxamide] displayed an IC50 of 0.39 µM.

For `CC(C)(C)OC(=O)N1CC[C@@H](Oc2ccc(NC(=O)N3CC(c4cccnc4)C3)cc2)C1` [Example 60, tert-butyl (3R)-3-[4-({[3-(pyridin-3-yl)azetidin-1-yl]carbonyl}amino)phenoxy]pyrrolidine-1-carboxylate], the IC50 was 0.0749 µM. Compared with the last molecule, the IC50 is about 5.2-fold lower.

As to `CC(C)(C)C(=O)N1CCC(c2ccc(NC(=O)N3CC(c4cccnn4)C3)cc2)CC1` [Example 339, N-{4-[1-(2,2-dimethylpropanoyl)piperidin-4-yl]phenyl}-3-(pyridazin-3-yl)azetidine-1-carboxamide], the IC50 was determined as 0.668 µM.

Turning to `CC(C)(C)CC(=O)N1CCC(Cc2ccc(NC(=O)N3CC(c4cccnn4)C3)cc2)CC1` [Example 351, N-(4-{[1-(3,3-dimethylbutanoyl)piperidin-4-yl]methyl}phenyl)-3-(pyridazin-3-yl)azetidine-1-carboxamide], the midpoint of inhibition, the IC50, lay at 0.655 µM.

Turning to `CC(=O)N1CCC(c2ccc(NC(=O)N3CC(c4cccnn4)C3)cc2)CC1` [Example 341, N-[4-(1-acetylpiperidin-4-yl)phenyl]-3-(pyridazin-3-yl)azetidine-1-carboxamide], the IC50 amounted to 8.94 µM.

For the molecule `CC(C)(C)C(=O)N1CCC(Cc2ccc(NC(=O)N3CC(c4cccnn4)C3)cc2)CC1` [Example 350, N-(4-{[1-(2,2-dimethylpropanoyl)piperidin-4-yl]methyl}phenyl)-3-(pyridazin-3-yl)azetidine-1-carboxamide], it took 0.743 µM to reach half-maximal inhibition (IC50).

Molecule `O=C(CCC(F)(F)F)N1CCC(c2ccc(NC(=O)N3CC(c4cccnn4)C3)cc2)CC1` [Example 344, 3-(pyridazin-3-yl)-N-{4-[1-(4,4,4-trifluorobutanoyl)piperidin-4-yl]phenyl}azetidine-1-carboxamide] registered an IC50 of 7.67 µM. Compared with the last molecule, the IC50 is about 10-fold higher.

In the case of `CC1(C(=O)N2CCC(Cc3ccc(NC(=O)N4CC(c5cccnn5)C4)cc3)CC2)CC1` [Example 357, N-[4-({1-[(1-methylcyclopropyl)carbonyl]piperidin-4-yl}methyl)phenyl]-3-(pyridazin-3-yl)azetidine-1-carboxamide], the IC50 is 0.703 µM.

For `O=C(Nc1ccc(C2CCN(C(=O)C3CCC3)CC2)cc1)N1CC(c2cccnn2)C1` [Example 343, N-{4-[1-(cyclobutylcarbonyl)piperidin-4-yl]phenyl}-3-(pyridazin-3-yl)azetidine-1-carboxamide], the 50% inhibitory concentration (IC50) came to 0.831 µM.

`O=C(Nc1ccc(CC2CCN(C(=O)c3ccccc3F)CC2)cc1)N1CC(c2cccnn2)C1` [Example 349, N-(4-{[1-(2-fluorobenzoyl)piperidin-4-yl]methyl}phenyl)-3-(pyridazin-3-yl)azetidine-1-carboxamide] had an IC50 of 0.772 µM.

As for `CC1(C(=O)N2CCC(c3ccc(NC(=O)N4CC(c5cccnn5)C4)cc3)CC2)CC1` [Example 346, N-(4-{1-[(1-methylcyclopropyl)carbonyl]piperidin-4-yl}phenyl)-3-(pyridazin-3-yl)azetidine-1-carboxamide], the IC50 was 0.843 µM.

As to `O=C(CC1CC1)N1CCC(c2ccc(NC(=O)N3CC(c4cccnn4)C3)cc2)CC1` [Example 347, N-{4-[1-(cyclopropylacetyl)piperidin-4-yl]phenyl}-3-(pyridazin-3-yl)azetidine-1-carboxamide], the IC50 was found to be 1.55 µM. Compared with the last molecule, the IC50 is about 1.8-fold higher.

`O=C(Nc1ccc(C2CCN(C(=O)[C@H]3CCOC3)CC2)cc1)N1CC(c2cnccc2Cl)C1` [Example 160, 3-(4-chloropyridin-3-yl)-N-(4-{1-[(3S)-tetrahydrofuran-3-ylcarbonyl]piperidin-4-yl}phenyl)azetidine-1-carboxamide] had an IC50 of 0.639 µM.

As to `O=C(Nc1ccc(C2CCN(C(=O)C3CC3)CC2)cc1)N1CC(c2cccnn2)C1` [Example 340, N-{4-[1-(cyclopropylcarbonyl)piperidin-4-yl]phenyl}-3-(pyridazin-3-yl)azetidine-1-carboxamide], half-maximal inhibition (IC50) required 2.45 µM.

`O=C(Nc1ccc(C2CCN(C(=O)C3CCOC3)CC2)cc1)N1CC(c2cccnc2)C1` (centres unmarked) [Example 53, 3-(pyridin-3-yl)-N-{4-[1-(tetrahydrofuran-3-ylcarbonyl)piperidin-4-yl]phenyl}azetidine-1-carboxamide]: the IC50 turned out to be 0.0138 µM.

Take `O=C(Nc1ccc(C2CCN(C(=O)[C@H]3CCOC3)CC2)cc1)N1CC(c2cccnc2)C1` [Example 159, 3-(pyridin-3-yl)-N-(4-{1-[(3S)-tetrahydrofuran-3-ylcarbonyl]piperidin-4-yl}phenyl)azetidine-1-carboxamide]: the IC50 amounted to 0.0745 µM.

As to `O=C(Nc1ccc(C2CCN(C(=O)c3ccccc3)CC2)cc1)N1CC(c2cccnn2)C1` [Example 336, N-[4-(1-benzoylpiperidin-4-yl)phenyl]-3-(pyridazin-3-yl)azetidine-1-carboxamide], the IC50 worked out at 0.222 µM.

The molecule `O=C(CC(F)(F)F)N1CCC(c2ccc(NC(=O)N3CC(c4cccnn4)C3)cc2)CC1` [Example 345, 3-(pyridazin-3-yl)-N-{4-[1-(3,3,3-trifluoropropanoyl)piperidin-4-yl]phenyl}azetidine-1-carboxamide] registered a half-inhibitory concentration (IC50) of 1.13 µM.

The molecule `CC(C)C(=O)N1CCC(Cc2ccc(NC(=O)N3CC(c4cccnn4)C3)cc2)CC1` [Example 354, N-(4-{[1-(2-methylpropanoyl)piperidin-4-yl]methyl}phenyl)-3-(pyridazin-3-yl)azetidine-1-carboxamide] returned an IC50 of 0.994 µM.

For the molecule `CC(=O)N1CCC(Cc2ccc(NC(=O)N3CC(c4cccnn4)C3)cc2)CC1` [Example 355, N-{4-[(1-acetylpiperidin-4-yl)methyl]phenyl}-3-(pyridazin-3-yl)azetidine-1-carboxamide], half-maximal inhibition (IC50) was put at 7.31 µM. Against the preceding molecule, the IC50 is about 7.4-fold higher.

Another test concerns the target NAMPT (Homo sapiens, UniProt P43490). Description: Time-Resolved Fluorescence Resonance Energy Transfer (TR-FRET) Binding Assay of NAMPT. Conditions: 6.8 nM NAMPT, 200 nM probe, equilibrated 3 hours, no substrates. As to the method:
Determination of the utility of compounds having Formula (I) as binders to and inhibitors of NAMPT was performed using Time-Resolved Fluorescence Resonance Energy Transfer (TR-FRET) binding assays.
Time-Resolved Fluorescence Resonance Energy Transfer (TR-FRET) Binding Assay of NAMPT
Six L were transferred to 384-well low-volume plates ([…] #3673). To this, 12 L of a 1.5× solution containing enzyme, probe and antibody were added. […] Reactions were equilibrated at room temperature for 3 hours prior to reading on an Envision multi-label plate reader (Perkin Elmer; Ex=337 nm, Em=520 and 495 nm). Time-resolved FRET ratios (Em520/Em495) were normalized to controls, plotted as a function of compound concentration and fit with the four-parameter logistic equation to determine IC50s.
(In general: In TR-FRET formats the signal depends on donor and acceptor labels being close together.)
`O=C(Nc1ccc(OC2CCN(C(=O)[C@H]3CCCO3)CC2)cc1)N1CC(c2cccnc2)C1` [Example 5, 3-(pyridin-3-yl)-N-[4-({1-[(2R)-tetrahydrofuran-2-ylcarbonyl]piperidin-4-yl}oxy)phenyl]azetidine-1-carboxamide] came in with an IC50 of 0.0568 µM.

`O=C(CC1CCOCC1)N1CCC(c2ccc(NC(=O)N3CC(c4cccnc4)C3)cc2)CC1` [Example 50, 3-(pyridin-3-yl)-N-{4-[1-(tetrahydro-2H-pyran-4-ylacetyl)piperidin-4-yl]phenyl}azetidine-1-carboxamide] came in with an IC50 of 0.0156 µM.

Turning to `Cn1cccc1C(=O)N1CCC(c2ccc(NC(=O)N3CC(c4cccnc4)C3)cc2)C1` (centres unmarked) [Example 285, N-(4-{1-[(1-methyl-1H-pyrrol-2-yl)carbonyl]pyrrolidin-3-yl}phenyl)-3-(pyridin-3-yl)azetidine-1-carboxamide], the IC50 amounted to 0.0172 µM.

For the molecule `O=C(Nc1ccc(OC2CN(C(=O)c3ccco3)C2)cc1)N1CC(c2cccnc2)C1` [Example 115, N-(4-{[1-(furan-2-ylcarbonyl)azetidin-3-yl]oxy}phenyl)-3-(pyridin-3-yl)azetidine-1-carboxamide], the 50% inhibitory concentration (IC50) amounted to 0.00922 µM. This IC50 lies about 1.9-fold lower than the previous one.

Regarding `CC(C)(C)OC(=O)N1CC[C@@H](Oc2ccc(NC(=O)N3CC(c4cccnc4)C3)cc2)C1` [Example 60, tert-butyl (3R)-3-[4-({[3-(pyridin-3-yl)azetidin-1-yl]carbonyl}amino)phenoxy]pyrrolidine-1-carboxylate], the IC50 came to 0.0554 µM.

`O=C(Nc1ccc(C2CN(CC3CCOC3)C2)cc1)N1CC(c2cccnc2)C1` (centres unmarked) [Example 256, 3-(pyridin-3-yl)-N-{4-[1-(tetrahydrofuran-3-ylmethyl)azetidin-3-yl]phenyl}azetidine-1-carboxamide] returned an IC50 of 0.83 µM.
